The target of assay [1] is Heat shock protein HSP90 (Homo sapiens) (UniProt P07900+P08238). The experiment in a line: Binding affinity to human recombinant Hsp90 by fluorescence polarization assay. It counts as protein assay.
The species named for assay [2] is Homo sapiens. The experiment in a line: Binding affinity to human Hsp70 assessed as activation of single-turnover ATPase activity at 8 uM.
The species entered for assay [3] is Homo sapiens. The experiment in a line: Decrease in binding affinity to human recombinant Hsp70 at 5 nM by fluorescence polarization assay in presence of ATP. In general terms: In fluorescence polarisation assays a small probe gives low polarisation when free and higher when bound to something large.
Assay [4] is described as follows: Binding affinity to human recombinant Hsp70 after 24 hrs by fluorescence polarization assay.
Assay [5] is described as follows: Binding affinity to Escherichia coli Hsp70 by fluorescence polarization assay.

The source made the active and inactive calls. The rule behind the calls is not given here.

Take `CC(C)C[C@H](NC(=O)[C@H](C)NC(=O)CCCCCNC(=S)Nc1ccc(-c2c3ccc(=O)cc-3oc3cc(O)ccc23)c(C(=O)O)c1)C(=O)N[C@@H](CC(C)C)C(=O)N[C@@H](CC(C)C)C(=O)N[C@@H](CO)C(=O)N[C@@H](C)C(=O)N1CCC[C@H]1C(=O)N[C@@H](CCCNC(=N)N)C(=O)N[C@@H](CCCNC(=N)N)C(=O)O`: the outcome in assay [1] was inactive. Moreover, the Activity result in the assay listed under Homo sapiens [2] is “Dose-dependent effect”. Moreover, in the assay listed under Homo sapiens [3], the result was Active. Moreover, the Kd – broadly, the free concentration of one partner at which half of the binding sites on the other are occupied at equilibrium, for simple one-to-one binding – in assay [4] turned out to be 426 nM.
Turning to `CC(C)C[C@H](NC(=O)[C@H](C)N)C(=O)N[C@@H](CC(C)C)C(=O)N[C@@H](CC(C)C)C(=O)N[C@@H](CO)C(=O)N[C@@H](C)C(=O)N1CCC[C@H]1C(=O)N[C@@H](CCCNC(=N)N)C(=O)N[C@@H](CCCNC(=N)N)C(=O)O`, the Kd in assay [5] amounted to 400 nM.

These data come from ChEMBL document CHEMBL1157429, “Design of a fluorescence polarization assay platform for the study of human Hsp70” (Bioorg Med Chem Lett, 2008).
